Test results as given in patent US9243039B2, “Bipartite inhibitors of bacterial RNA polymerase: Sal-target-inhibitor/nucleoside-analog-inhibitor conjugates” (priority 2012, dated 2016).

Assays:
Neisseria gonorrhoeae = assay: Antibacterial activity, broth microdilution, Neisseria gonorrhoeae; assay type: cell-based; details: in words, Gram-negative bacterial pathogen
Description: (§1) Antibacterial activity was quantified using broth microdilution [Clinical and Laboratory Standards Institute (CLSUNCCLS), Methods for Dilution Antimicrobial Susceptibility Tests for Bacteria That Grow Aerobically; Approved Standard, Eighth Edition. CLIS Document M07-A8 (CLIS, Wayne Pa.), 2009]. Assays with Enterobacter cloacae ATCC 13047, Pseudomonas aeruginosa ATCC10145, and Escherichia coli D21f2to1C, employed a starting cell density of 2-5×10^5 cfu/ml, Mueller Hinton II cation adjusted broth (BD Biosciences, Inc.), and an air atmosphere. Assays with Haemophilus influenzae ATCC49247 and Neisseria gonorrhoeae ATCC 19424 employed a starting cell density of 2-5×10^5 cfu/ml, Haemophilus Test Medium broth (Barry et al., 1993) and a 5% CO2/95% air atmosphere. MIC50 was defined as the minimal concentration resulting in ≧50% inhibition of bacterial growth.

[1] = test system: Gram-positive bacterial pathogens; details: in words, reported previously (Trischman 1994; Moore 1999); cited from earlier work
[2] = test system: Enterobacter cloacae ATCC 13047; assay: Antibacterial activity, broth microdilution, Enterobacter cloacae; assay type: cell-based
Description: as §1

Pseudomonas aeruginosa = assay: Antibacterial activity, broth microdilution, Pseudomonas aeruginosa; assay type: cell-based; details: in words, Gram-negative bacterial pathogen
Description: as §1

Haemophilus influenzae = assay: Antibacterial activity, broth microdilution, Haemophilus influenzae; assay type: cell-based; details: in words, Gram-negative bacterial pathogen
Description: as §1

Escherichia coli RNAP = Escherichia coli RNAP (Escherichia coli, UniProt P0A8T7+P0A8V2); assay: Fluorescence-detected RNAP assay, Escherichia coli RNAP; assay type: biochemical; details: fluorescent-detected RNAP assays
Experimental: Fluorescence-detected RNAP assays with Escherichia coli RNAP were performed by a modification of the procedure of Kuhlman et al., 2004 [Kuhlman et al., Anal. Biochem. 324:183-190, 2004]. Reaction mixtures contained (20 μl): […] test compound, 75 nM Escherichia coli RNAP […] holoenzyme, 20 nM 384 by DNA fragment containing the bacteriophage T4 N25 promoter, 100 μM ATP, 100 μM GTP, 100 μM UTP, 100 μM CTP, 50 mM Tris-HCl, pH 8.0, 100 mM KCl, 10 mM MgCl2, 1 mM DTT, 10 μg/ml bovine serum albumin, and 5.5% glycerol. Reaction components other than DNA and NTPs were pre-incubated for 10 min at 37° C. Reactions were carried out by addition of DNA and incubation for 5 min at 37° C., followed by addition of NTPs and incubation for 60 min at 37° C. DNA was removed by addition of 1 μl 5 mM CaCl2 and 2 U DNaseI (Ambion, Inc.), followed by incubation for 90 min at 37° C. RNA was quantified by addition of 100 μl RiboGreen RNA Quantitation Reagent (Invitrogen, Inc.; 1:500 dilution in Tris-HCl, pH 8.0, 1 mM EDTA), followed by incubation for 10 min at 25° C., followed by measurement of fluorescence intensity [excitation wavelength=485 nm and emission wavelength=535 nm; QuantaMaster QM1 spectrofluorometer (PTI, Inc.)].
(§2) Half-maximal inhibitory concentrations (IC50s) were calculated by non-linear regression in SigmaPlot (SPSS, Inc.).

[3] = test system: Gram-positive and Gram-negative bacterial RNAP; details: in words, reported previously (Miao et al. 1997); cited from earlier work
[4] = test system: mutants resistant to other RNAP inhibitors; details: Ebright et al., WO/2012/129173; cited from earlier work
[5] = test system: Escherichia coli D21f2toIC; assay: Antibacterial activity, broth microdilution, Escherichia coli D21f2tolC; assay type: cell-based; details: minimal concentration resulting in ≧50% inhibition of bacterial growth
Description: as §1

RNAP = assay: Mechanism of inhibition of RNAP by Sal; assay type: biochemical; details: in words
[6] = test system: mutants resistant to other RNAP inhibitors; details: disclosed herein
human RNAP I/II/III = assay: Radiochemical assay with human RNAP I, II and III (HeLaScribe nuclear extract); assay type: biochemical
Experimental: Radiochemical assays with human RNAP I, II, and III were performed essentially as described [Sawadogo and Roeder, Cell 43:165-75, 1985]. Reaction mixtures contained (20 μl): 0-100 μM test compound, 8 U HeLaScribe Nuclear Extract (Promega, Inc.), 1 μg human placental DNA (Sigma-Aldrich), 400 μM ATP, 400 μM [α^32P]UTP (0.11 Bq/fmol), 400 μM CTP, 400 μM GTP, 50 mM Tris-HCl, pH 8.0, 7 mM HEPES-NaOH, 70 mM (NH4)2SO4, 50 mM KCl, 12 mM MgCl2, 5 mM DTT, 0.1 mM EDTA, 0.08 mM phenylmethylsulfonyl fluoride, and 16% glycerol. Reaction components other than DNA and NTPs were pre-incubated 10 min at 30° C., DNA was added and reaction mixtures were incubated 15 min at 30° C., NTPs were added and reaction mixtures were incubated 60 min at 30° C. Reaction mixtures were spotted on DE81 filter discs (Whatman, Inc.; pre-wetted with water) and incubated 1 min at room temperature. Filters were washed with 3×3 ml Na2HPO4, 2×3 ml water, and 3 ml ethanol, using a filter manifold (Hoefer, Inc.). Filters were placed in scintillation vials containing 10 ml Scintiverse BD Cocktail (Thermo Fisher, Inc.), and radioactivity was quantified by scintillation counting (LS6500; Beckman-Coulter, Inc.).
as §2

Vero E6 ATCC CRL1586 = assay: Cytotoxicity to mammalian cells in culture (CellTiter96); assay type: cell-based
Description: MICs for mammalian cells (Vero E6) in culture were quantified using CellTiter96 assay (Promega. Inc.; procedures as specified by the manufacturer). Screening data for SalA and SalB (compounds 1 and 2) and representative compounds of this invention (compounds 3-9) are presented in Tables 1-2: […]

Escherichia coli RNAP, sequence (P0A800 whole entry, the tested form may be a part): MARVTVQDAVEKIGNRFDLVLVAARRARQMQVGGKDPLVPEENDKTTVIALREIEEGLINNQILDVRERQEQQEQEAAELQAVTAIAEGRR
Escherichia coli RNAP, sequence (P00579 whole entry, further chain, the tested form may be a part): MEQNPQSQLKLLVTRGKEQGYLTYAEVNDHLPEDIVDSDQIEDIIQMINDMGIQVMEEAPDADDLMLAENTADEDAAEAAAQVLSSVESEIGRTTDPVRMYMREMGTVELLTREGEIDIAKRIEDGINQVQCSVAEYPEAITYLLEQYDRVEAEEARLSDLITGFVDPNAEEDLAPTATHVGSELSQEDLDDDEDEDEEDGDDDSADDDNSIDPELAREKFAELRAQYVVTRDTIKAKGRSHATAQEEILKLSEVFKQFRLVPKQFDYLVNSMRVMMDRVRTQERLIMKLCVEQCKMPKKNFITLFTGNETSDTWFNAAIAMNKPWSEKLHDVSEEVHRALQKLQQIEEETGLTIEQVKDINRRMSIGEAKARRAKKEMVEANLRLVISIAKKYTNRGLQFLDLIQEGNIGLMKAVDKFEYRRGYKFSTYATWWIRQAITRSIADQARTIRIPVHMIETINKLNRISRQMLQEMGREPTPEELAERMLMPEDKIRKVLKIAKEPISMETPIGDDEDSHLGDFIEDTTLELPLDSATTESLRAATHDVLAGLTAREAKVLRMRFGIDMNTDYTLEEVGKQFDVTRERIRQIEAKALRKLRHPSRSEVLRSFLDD
Escherichia coli RNAP, sequence (P0A8V2 whole entry, the tested form may be a part): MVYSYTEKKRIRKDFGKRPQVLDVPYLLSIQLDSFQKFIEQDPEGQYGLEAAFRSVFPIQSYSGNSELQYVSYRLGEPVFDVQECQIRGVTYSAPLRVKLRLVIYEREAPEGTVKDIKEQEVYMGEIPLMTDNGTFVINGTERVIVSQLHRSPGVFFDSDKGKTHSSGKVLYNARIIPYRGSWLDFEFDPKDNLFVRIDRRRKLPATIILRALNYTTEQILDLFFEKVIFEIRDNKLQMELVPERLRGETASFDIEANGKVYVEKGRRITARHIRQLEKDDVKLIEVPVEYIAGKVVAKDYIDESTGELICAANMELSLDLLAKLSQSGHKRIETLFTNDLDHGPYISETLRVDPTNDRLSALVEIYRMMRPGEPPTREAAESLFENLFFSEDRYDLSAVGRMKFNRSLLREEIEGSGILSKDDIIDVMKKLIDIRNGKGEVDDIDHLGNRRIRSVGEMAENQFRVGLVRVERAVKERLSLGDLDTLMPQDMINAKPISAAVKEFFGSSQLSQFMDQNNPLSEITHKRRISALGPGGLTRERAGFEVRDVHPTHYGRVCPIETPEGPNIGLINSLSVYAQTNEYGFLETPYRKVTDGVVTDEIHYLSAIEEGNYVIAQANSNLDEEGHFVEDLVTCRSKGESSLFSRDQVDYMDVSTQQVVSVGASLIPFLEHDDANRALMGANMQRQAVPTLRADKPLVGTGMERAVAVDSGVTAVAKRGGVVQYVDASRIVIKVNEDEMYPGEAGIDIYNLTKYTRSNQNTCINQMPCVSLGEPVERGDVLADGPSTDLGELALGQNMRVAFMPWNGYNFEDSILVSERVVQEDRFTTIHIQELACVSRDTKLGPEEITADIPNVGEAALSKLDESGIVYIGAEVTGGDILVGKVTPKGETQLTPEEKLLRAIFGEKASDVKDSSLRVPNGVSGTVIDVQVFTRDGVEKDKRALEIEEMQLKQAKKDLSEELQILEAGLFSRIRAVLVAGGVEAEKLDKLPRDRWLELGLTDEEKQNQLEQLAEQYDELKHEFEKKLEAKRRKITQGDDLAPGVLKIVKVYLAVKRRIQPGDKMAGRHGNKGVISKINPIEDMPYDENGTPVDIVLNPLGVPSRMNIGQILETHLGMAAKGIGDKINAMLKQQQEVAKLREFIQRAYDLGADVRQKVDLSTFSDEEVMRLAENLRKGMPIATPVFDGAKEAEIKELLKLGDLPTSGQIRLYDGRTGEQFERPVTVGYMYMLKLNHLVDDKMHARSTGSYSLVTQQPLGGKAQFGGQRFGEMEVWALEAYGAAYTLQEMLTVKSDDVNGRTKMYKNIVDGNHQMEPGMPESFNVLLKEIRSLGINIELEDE
Escherichia coli RNAP, sequence (P0A8T7 whole entry, the tested form may be a part): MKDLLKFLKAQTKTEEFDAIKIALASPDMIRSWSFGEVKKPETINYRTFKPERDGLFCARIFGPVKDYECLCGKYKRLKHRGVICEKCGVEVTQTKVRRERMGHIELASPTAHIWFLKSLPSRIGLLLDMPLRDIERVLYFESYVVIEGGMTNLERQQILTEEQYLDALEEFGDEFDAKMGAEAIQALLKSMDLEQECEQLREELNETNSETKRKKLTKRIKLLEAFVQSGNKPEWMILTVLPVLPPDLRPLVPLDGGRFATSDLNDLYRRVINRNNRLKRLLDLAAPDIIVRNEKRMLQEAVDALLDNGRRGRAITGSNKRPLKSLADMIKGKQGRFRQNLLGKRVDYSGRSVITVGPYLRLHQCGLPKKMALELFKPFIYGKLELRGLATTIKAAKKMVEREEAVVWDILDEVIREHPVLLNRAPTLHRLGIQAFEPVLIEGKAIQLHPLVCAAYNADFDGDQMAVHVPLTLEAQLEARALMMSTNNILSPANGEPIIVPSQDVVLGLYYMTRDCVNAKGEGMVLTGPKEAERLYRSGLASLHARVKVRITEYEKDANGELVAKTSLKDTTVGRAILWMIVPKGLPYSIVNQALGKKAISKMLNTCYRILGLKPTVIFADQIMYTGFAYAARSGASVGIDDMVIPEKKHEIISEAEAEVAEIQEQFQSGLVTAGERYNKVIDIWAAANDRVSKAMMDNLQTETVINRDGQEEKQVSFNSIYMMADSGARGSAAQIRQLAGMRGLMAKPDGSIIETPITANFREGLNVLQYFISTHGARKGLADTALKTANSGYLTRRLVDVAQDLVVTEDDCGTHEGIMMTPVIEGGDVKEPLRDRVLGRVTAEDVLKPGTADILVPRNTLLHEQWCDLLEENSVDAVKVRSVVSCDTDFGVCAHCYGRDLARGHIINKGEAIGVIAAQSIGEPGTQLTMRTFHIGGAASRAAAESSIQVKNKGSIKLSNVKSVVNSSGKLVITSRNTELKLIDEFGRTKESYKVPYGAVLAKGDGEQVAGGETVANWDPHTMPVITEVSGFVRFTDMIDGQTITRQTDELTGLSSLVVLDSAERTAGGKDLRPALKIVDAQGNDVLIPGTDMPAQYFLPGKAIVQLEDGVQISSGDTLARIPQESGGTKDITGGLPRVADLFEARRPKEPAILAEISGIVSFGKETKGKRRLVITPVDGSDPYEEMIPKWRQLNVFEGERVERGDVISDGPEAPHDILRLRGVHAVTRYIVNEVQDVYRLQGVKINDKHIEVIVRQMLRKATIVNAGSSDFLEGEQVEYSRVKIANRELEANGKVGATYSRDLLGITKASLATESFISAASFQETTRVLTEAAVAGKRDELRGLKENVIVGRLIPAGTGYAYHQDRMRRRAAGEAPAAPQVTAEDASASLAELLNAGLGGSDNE
Escherichia coli RNAP, sequence (P0A7Z4 whole entry, further chain, the tested form may be a part): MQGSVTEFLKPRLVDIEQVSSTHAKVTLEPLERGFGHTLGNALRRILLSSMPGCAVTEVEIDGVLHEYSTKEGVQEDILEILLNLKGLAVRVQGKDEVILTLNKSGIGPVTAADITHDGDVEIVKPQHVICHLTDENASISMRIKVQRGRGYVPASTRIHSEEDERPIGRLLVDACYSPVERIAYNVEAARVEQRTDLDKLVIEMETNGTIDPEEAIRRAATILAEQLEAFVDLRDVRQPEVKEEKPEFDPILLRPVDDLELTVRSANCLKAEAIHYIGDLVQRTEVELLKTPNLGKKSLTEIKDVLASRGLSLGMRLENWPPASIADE

Q: Which “antibacterial activity against Neisseria gonorrhoeae” value (Neisseria gonorrhoeae) does the source give for Salinamide A [SalA (1)] here?
A: exhibit antibacterial activity

Q: And the “antibacterial activity against Gram-positive bacterial pathogens” value [1]?
A: exhibit antibacterial activity

Q: What about the “antibacterial activity against Enterobacter cloacae” value ([2]; in words, Gram-negative bacterial pathogen) of the same substance?
A: exhibit antibacterial activity

Q: What about the “MIC50 Enterobacter cloacae ATCC 13047” value ([2]; minimal concentration resulting in ≧50% inhibition of bacterial growth) of the same substance?
A: 1.56 µg/mL

Q: And the “antibacterial activity against Pseudomonas aeruginosa” value (Pseudomonas aeruginosa)?
A: exhibit antibacterial activity

Q: And the “antibacterial activity against Haemophilus influenzae” value (Haemophilus influenzae)?
A: exhibit antibacterial activity

Q: And the IC50 (Escherichia coli RNAP)?
A: 1 µM

Q: What about the “inhibition of Gram-positive and Gram-negative bacterial RNAP in vitro” value [3] of the same substance?
A: inhibits

Q: What about the “cross-resistance to Sal of CBR703-resistant mutants” value [4] of the same substance?
A: not cross-resistant

Q: What about the “cross-resistance to Sal of rifamycin-resistant mutants” value [4] of the same substance?
A: not cross-resistant

Q: What about the “MIC50 Escherichia coli D21f2toIC” value [5] of the same substance?
A: 0.024 µg/mL

Q: And the “inhibition of formation of the RNAP-promoter open complex in transcription initiation” value (RNAP)?
A: does not inhibit

Q: And the “inhibition of nucleotide addition in both transcription initiation and transcription elongation” value (RNAP)?
A: inhibits

Q: And the “inhibition of wild-type RNAP versus RNAP-derivative having a deletion of the trigger loop” value (RNAP)?
A: equal extents

Q: What about the “mode of transcription inhibition with respect to NTP substrate” value (RNAP) of the same substance?
A: noncompetitive

Q: And the “cross-resistance to Sal of streptolydigin-resistant, myxopyronin-resistant, and lipiarmycin-resistant mutants” value [6]?
A: do not exhibit cross-resistance

Q: And the IC50 (human RNAP I/II/III)?
A: > 100 µM

Q: And the “inhibition of human RNAP I, II, and III” value (human RNAP I/II/III; in words)?
A: do not detectably inhibit

Q: And the “inhibition of growth of mammalian cells in culture” value (Vero E6 ATCC CRL1586; in words)?
A: do not detectably inhibit growth

Q: And the “MIC50 Vero E6 ATCC CRL1586” value (Vero E6 ATCC CRL1586; mammalian cells in culture)?
A: >100 µg/mL
